Some test systems named below: CAKI-1; CCRF-CEM; HL-60; HT-29; IGROV-1; MDA-MB-231; MDA-MB-435; NCI-H522; PC-3; RXF 393; SF-295; SK-MEL-2; SK-OV-3; SNB-19; SR; SW-620; UO-31; OVCAR-3; SK-MEL-28; A498.
Common to all, as to experiment: growth of human tumour cells (NCI), 48 h

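Growth conditions: 96-well plates. Treatment: test compound, 48 hours, 5 concentrations. Analysis: linear interpolation between bracketing concentrations; unreached endpoints set to highest concentration. At the GI50, growth is halved.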 Active and inactive are the calls of the source. Rule as the data show it: active = GI50 up to about 1.1 µM and inactive = higher.

As to `CC(NC(=O)C(C)C(=O)NCc1ccc(C(F)(F)F)cc1)C(N)=O` (stereo unspecified), the GI50 in the test with CAKI-1, in the test with CCRF-CEM, in the test with HL-60, in the test with HT-29, with IGROV-1 and with MDA-MB-231 was > 100 µM (inactive) in each case. Further, the GI50 in the test with MDA-MB-435 is > 100 µM (inactive); in the test with NCI-H522, 34.9 µM (inactive); in the test with PC-3 it was > 100 µM (inactive); with RXF 393, > 100 µM (inactive); with SF-295 it was > 100 µM (inactive); in the test on SK-MEL-2 it was > 100 µM (inactive). Besides, the GI50 in the test on SK-OV-3 is > 100 µM (inactive); with SNB-19, 63.8 µM (inactive); in the test on SR it was > 100 µM (inactive); with SW-620, > 100 µM (inactive); with UO-31, > 100 µM (inactive).
For the molecule `CC1(C)N=C(/C(Cl)=[N+](/[O-])C(=O)c2ccc(F)cc2)C(C)(C)N1O`, the GI50 with CAKI-1 is 20.2 µM (inactive); in the test with CCRF-CEM it was 0.466 µM (active); in the test with HL-60, 10.8 µM (inactive); with HT-29, 19.9 µM (inactive); in the test on IGROV-1 it was 19.5 µM (inactive); in the test on MDA-MB-231 it was 16.8 µM (inactive). The GI50 was 21.4 µM (inactive) with MDA-MB-435; 17 µM (inactive) in the test with OVCAR-3; 17.5 µM (inactive) with PC-3; 14.8 µM (inactive) in the test with RXF 393; 31.8 µM (inactive) in the test on SF-295; 15.8 µM (inactive) in the test with SK-MEL-28. Also, the GI50 is 17.1 µM (inactive) in the test with SK-MEL-2; 22.6 µM (inactive) in the test with SK-OV-3; > 100 µM (inactive) with SNB-19; 4.16 µM (inactive) in the test on SR; 15.1 µM (inactive) with SW-620; 21 µM (inactive) in the test on UO-31.
For the molecule `COC(=O)/C=C(\C(=O)OC)C1C(=O)Oc2c(C)c(=O)c3ccccc3n21` (stereo unspecified), the GI50 with CAKI-1, in the test on CCRF-CEM, with HL-60, with HT-29, with IGROV-1 and in the test on MDA-MB-231 was > 100 µM (inactive) in each case. Also, the GI50 with MDA-MB-435, in the test on NCI-H522, in the test with OVCAR-3, in the test with PC-3, in the test with RXF 393 and in the test with SF-295 was > 100 µM (inactive) throughout. Besides, the GI50 with SK-MEL-28, in the test on SK-MEL-2, with SK-OV-3, in the test with SNB-19, in the test on SR and with SW-620 was > 100 µM (inactive) each time.
Regarding `NC1OC(COC(=O)c2ccccc2)C(O)C(OC(=O)c2ccccc2)C1OC(=O)c1ccccc1` (stereo unspecified), the GI50 is 17.3 µM (inactive) in the test on HT-29; 16.9 µM (inactive) with IGROV-1; 18.7 µM (inactive) in the test on MDA-MB-231; 21.7 µM (inactive) in the test on MDA-MB-435; 23.9 µM (inactive) with NCI-H522; 25.2 µM (inactive) with OVCAR-3. Also, the GI50 is 19.7 µM (inactive) in the test with PC-3; 16.3 µM (inactive) in the test on RXF 393; 17.2 µM (inactive) in the test on SF-295; 20.2 µM (inactive) with SK-MEL-28; 29.9 µM (inactive) in the test with SK-MEL-2; 41.3 µM (inactive) in the test on SK-OV-3. Also, the GI50 in the test with SNB-19 is 33 µM (inactive); in the test with SR it was > 10 µM (inactive); with SW-620, 19 µM (inactive); with UO-31 it was 33.5 µM (inactive).
`c1ccc(CNCCCCNCCCNCc2ccccc2)cc1`: the GI50 is 13.6 µM (inactive) in the test on CAKI-1; 13 µM (inactive) in the test on CCRF-CEM; 15.2 µM (inactive) in the test on HT-29; 13.1 µM (inactive) in the test on IGROV-1; 15.2 µM (inactive) in the test with MDA-MB-231; 16.4 µM (inactive) with MDA-MB-435. Moreover, the GI50 in the test with NCI-H522 is 15.2 µM (inactive); in the test on OVCAR-3, 20 µM (inactive); in the test on PC-3 it was 13.6 µM (inactive); with RXF 393 it was 16.4 µM (inactive); with SF-295, > 100 µM (inactive); in the test on SK-MEL-28, 16 µM (inactive). The GI50 with SK-MEL-2 was 31.6 µM (inactive); in the test on SK-OV-3 it was > 100 µM (inactive); in the test with SNB-19 it was 16.4 µM (inactive); in the test with SR, 17.6 µM (inactive); with SW-620, 15.8 µM (inactive); in the test with UO-31 it was 21.5 µM (inactive).
As for `Clc1cccc(-c2sc(-c3ccsc3)cc2Cc2ccsc2)c1`, the GI50 in the test on CAKI-1, in the test on CCRF-CEM, with HL-60, in the test with HT-29, with IGROV-1 and in the test on MDA-MB-231 was > 10 µM (inactive) each time. Besides, the GI50 in the test with MDA-MB-435, in the test on PC-3, in the test on RXF 393, with SF-295, with SK-MEL-28 and in the test on SK-OV-3 was > 10 µM (inactive) each time. Besides, the GI50 in the test with SR and with SW-620 was > 10 µM (inactive) throughout.
On to `Cc1nc(=O)[nH]c2c1C(=O)N(C(C)C)C(NC(C)C)S2` (stereo unspecified), for which the GI50 is > 100 µM (inactive) with A498; 55.1 µM (inactive) with CAKI-1; > 100 µM (inactive) in the test on CCRF-CEM; > 100 µM (inactive) with HL-60; > 100 µM (inactive) in the test with HT-29; > 100 µM (inactive) in the test with IGROV-1. Further, the GI50 is > 100 µM (inactive) in the test on MDA-MB-231; > 100 µM (inactive) in the test with MDA-MB-435; 47.2 µM (inactive) in the test with NCI-H522; 26.9 µM (inactive) in the test with OVCAR-3; 41.2 µM (inactive) in the test on PC-3; > 100 µM (inactive) with RXF 393. Besides, the GI50 with SF-295, in the test on SK-MEL-28, in the test with SK-MEL-2, with SK-OV-3, with SNB-19 and in the test on SW-620 was > 100 µM (inactive) each time. Further, the GI50 in the test on UO-31 is > 100 µM (inactive).
`Cc1cccc2c1Oc1cc(Cl)ccc1C2NC(=O)CCN1CCOCC1` (stereo unspecified): the GI50 in the test with CCRF-CEM was > 100 µM (inactive); with HL-60, 32.2 µM (inactive); in the test on HT-29, 61.8 µM (inactive); with IGROV-1 it was > 100 µM (inactive); with MDA-MB-231, > 100 µM (inactive); with MDA-MB-435, > 100 µM (inactive). Moreover, the GI50 with NCI-H522, in the test with OVCAR-3, with PC-3, in the test on SF-295, in the test on SK-MEL-28 and with SK-OV-3 was > 100 µM (inactive) each time. For the same molecule, the GI50 in the test with SNB-19 was > 100 µM (inactive); with SR, > 100 µM (inactive); with SW-620, > 100 µM (inactive); with UO-31, 49.8 µM (inactive).

For the origin of these results see ChEMBL document CHEMBL1201862, “PubChem BioAssay data set” (2004).
